According to ChEMBL document CHEMBL6096667, “Design, synthesis and biological evaluation of biaryl amide derivatives as modulators of multi-drug resistance” (Eur J Med Chem, 2025):

What was measured:
A2780/Taxol [1] = assay: Inhibition of cell proliferation of human Paclitaxel-resistant A2780/T cells incubated for 48 hrs in presence of PTX by MTT assay; format: functional, cell-based
A2780/Taxol [2] = assay: Inhibition of cell proliferation of human Paclitaxel-resistant A2780/T cells at 1 uM incubated for 48 hrs in presence of PTX by MTT assay relative to control; format: functional
A2780/Taxol [3] = assay: Inhibition of cell proliferation of human Paclitaxel-resistant A2780/T cells at 10 uM incubated for 48 hrs in presence of PTX by MTT assay relative to control; format: functional
A2780/Taxol [4] = assay: Reversal of paclitaxel resistance in human Paclitaxel-resistant A2780/T cells assessed as reversal fold by measuring ratio of paclitaxel IC50 to paclitaxel IC50 in presence of test compound at 1 uM incubated for 48 hrs by MTT assay; format: functional
[5] = Reversal of paclitaxel resistance in human A2780/CDDP cells assessed as reversal fold by measuring ratio of paclitaxel IC50 to paclitaxel IC50 in presence of test compound by MTT assay; format: functional
[6] = Reversal of paclitaxel resistance in human CDDP-resistant A549 cells assessed as reversal fold by measuring ratio of paclitaxel IC50 to paclitaxel IC50 in presence of test compound by MTT assay; format: functional, CDDP-resistant A549 cell
A2780/Taxol [7] = assay: Reversal of paclitaxel resistance in human Paclitaxel-resistant A2780/T cells by MTT assay; format: functional, cell-based
[8] = molecular target: T1, ATP-dependent translocase ABCB1 (Homo sapiens, UniProt P08183); assay: Binding affinity to CM5 sensor chip-immobilized human P-gp assessed as dissociation constant by SPR analysis
T1 sequence (P08183 whole entry): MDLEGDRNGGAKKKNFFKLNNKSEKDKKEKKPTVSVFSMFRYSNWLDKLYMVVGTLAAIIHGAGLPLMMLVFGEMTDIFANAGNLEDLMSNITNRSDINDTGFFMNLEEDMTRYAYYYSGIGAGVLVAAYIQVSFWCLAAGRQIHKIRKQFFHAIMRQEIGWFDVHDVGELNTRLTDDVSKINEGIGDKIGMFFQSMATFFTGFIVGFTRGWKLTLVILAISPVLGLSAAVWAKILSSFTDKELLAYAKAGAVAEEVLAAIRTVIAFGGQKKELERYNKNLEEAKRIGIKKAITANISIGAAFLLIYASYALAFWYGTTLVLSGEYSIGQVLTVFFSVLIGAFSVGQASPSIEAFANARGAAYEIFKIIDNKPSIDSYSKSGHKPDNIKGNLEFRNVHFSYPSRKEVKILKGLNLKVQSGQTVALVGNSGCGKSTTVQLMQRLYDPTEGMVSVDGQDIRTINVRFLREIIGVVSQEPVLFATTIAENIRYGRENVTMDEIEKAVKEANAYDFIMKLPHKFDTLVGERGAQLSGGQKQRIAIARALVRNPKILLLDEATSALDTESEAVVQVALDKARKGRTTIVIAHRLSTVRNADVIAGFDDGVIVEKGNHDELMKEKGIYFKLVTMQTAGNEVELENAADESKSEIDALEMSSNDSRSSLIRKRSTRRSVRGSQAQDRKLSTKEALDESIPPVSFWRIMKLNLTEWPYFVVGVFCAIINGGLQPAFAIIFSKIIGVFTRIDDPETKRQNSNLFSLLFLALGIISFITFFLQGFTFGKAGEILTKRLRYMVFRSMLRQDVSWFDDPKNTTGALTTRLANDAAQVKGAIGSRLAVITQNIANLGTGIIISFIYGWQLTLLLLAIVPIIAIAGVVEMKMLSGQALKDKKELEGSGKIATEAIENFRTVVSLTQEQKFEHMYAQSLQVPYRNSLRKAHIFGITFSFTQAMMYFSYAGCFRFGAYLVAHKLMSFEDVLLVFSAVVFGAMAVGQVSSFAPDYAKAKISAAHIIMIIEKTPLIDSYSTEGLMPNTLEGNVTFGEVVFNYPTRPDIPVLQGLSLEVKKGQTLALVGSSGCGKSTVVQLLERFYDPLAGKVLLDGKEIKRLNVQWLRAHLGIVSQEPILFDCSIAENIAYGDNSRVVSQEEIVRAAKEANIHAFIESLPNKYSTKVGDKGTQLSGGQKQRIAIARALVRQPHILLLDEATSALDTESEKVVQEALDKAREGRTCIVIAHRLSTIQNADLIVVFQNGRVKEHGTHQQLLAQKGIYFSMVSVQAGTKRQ

[9] = molecular target: T1, ATP-dependent translocase ABCB1; assay: Inhibition of P-gp in human Paclitaxel-resistant A2780/T cells incubated for 48 hrs by Western blot analysis; format: cell-based; conditions: paclitaxel-resistant a2780/t cell, 10 µM
[10] = molecular target: Multidrug resistance-associated protein 1 (Homo sapiens, UniProt P33527); assay: Inhibition of MRP1 in human Paclitaxel-resistant A2780/T cells at high concentration incubated for 48 hrs by Western blot analysis; format: cell-based; conditions: paclitaxel-resistant a2780/t cell
Sequence of Multidrug resistance-associated protein 1 (P33527 whole entry): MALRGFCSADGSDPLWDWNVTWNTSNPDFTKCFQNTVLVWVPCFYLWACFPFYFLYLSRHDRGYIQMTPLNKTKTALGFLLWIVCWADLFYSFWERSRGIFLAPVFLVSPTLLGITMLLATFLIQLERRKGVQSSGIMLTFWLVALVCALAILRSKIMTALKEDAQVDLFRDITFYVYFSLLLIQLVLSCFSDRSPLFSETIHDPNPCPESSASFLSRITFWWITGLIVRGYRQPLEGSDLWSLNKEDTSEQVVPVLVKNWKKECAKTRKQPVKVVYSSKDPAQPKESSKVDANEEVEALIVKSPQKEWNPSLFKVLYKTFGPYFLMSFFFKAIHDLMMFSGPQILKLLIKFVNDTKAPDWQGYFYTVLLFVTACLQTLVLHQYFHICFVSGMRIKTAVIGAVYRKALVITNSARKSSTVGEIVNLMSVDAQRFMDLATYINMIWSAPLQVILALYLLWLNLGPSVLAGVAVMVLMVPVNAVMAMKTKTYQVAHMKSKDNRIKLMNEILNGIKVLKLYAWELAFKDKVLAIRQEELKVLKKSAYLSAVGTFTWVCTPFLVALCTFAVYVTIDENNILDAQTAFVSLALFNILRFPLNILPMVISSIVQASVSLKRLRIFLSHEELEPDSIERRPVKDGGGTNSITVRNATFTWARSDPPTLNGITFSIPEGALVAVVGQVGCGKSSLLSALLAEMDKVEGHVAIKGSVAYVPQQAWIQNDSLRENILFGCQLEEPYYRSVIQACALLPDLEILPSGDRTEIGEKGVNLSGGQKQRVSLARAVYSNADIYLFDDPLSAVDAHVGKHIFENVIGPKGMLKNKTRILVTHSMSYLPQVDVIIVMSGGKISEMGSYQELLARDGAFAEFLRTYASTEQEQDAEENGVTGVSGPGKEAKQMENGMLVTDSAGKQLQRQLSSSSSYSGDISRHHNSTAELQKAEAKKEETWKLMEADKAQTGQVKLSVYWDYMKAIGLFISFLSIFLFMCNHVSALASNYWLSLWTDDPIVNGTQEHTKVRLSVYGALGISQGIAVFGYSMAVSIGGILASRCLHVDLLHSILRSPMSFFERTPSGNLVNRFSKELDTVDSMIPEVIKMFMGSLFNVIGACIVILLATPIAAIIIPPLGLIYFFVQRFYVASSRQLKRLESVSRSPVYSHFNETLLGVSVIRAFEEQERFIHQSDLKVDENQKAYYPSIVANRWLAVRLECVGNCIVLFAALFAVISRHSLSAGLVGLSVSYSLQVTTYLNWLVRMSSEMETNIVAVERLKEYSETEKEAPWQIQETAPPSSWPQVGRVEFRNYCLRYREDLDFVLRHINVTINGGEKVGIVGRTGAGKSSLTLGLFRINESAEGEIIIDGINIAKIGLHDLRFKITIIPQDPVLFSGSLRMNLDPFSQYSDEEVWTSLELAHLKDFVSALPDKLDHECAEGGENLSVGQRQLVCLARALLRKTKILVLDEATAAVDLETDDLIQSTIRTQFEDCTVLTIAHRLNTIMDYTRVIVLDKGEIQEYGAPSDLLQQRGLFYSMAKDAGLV

[11] = molecular target: T2, Broad substrate specificity ATP-binding cassette transporter ABCG2 (Homo sapiens, UniProt Q9UNQ0); assay: Inhibition of ABCG2 in human Paclitaxel-resistant A2780/T cells at high concentration incubated for 48 hrs by Western blot analysis; format: cell-based; conditions: paclitaxel-resistant a2780/t cell
T2 sequence (Q9UNQ0 whole entry): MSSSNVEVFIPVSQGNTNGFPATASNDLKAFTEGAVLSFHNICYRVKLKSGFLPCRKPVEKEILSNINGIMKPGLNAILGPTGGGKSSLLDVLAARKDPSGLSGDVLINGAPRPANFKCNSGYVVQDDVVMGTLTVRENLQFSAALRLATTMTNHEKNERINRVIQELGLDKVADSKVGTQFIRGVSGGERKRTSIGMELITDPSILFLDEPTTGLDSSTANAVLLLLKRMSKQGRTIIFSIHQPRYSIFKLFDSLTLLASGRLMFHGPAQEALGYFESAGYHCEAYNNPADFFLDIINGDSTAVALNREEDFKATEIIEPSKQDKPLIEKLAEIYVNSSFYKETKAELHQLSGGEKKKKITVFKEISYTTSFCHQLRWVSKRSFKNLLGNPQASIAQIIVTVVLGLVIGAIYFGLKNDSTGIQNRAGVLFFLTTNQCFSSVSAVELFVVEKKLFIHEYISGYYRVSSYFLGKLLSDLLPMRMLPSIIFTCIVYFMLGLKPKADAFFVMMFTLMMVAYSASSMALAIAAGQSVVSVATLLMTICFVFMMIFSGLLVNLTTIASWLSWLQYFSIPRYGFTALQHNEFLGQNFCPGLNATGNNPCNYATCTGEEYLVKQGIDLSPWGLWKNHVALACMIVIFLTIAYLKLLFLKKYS

A2780/Taxol [12] = assay: Induction of intracellular Rh123 accumulation in human Paclitaxel-resistant A2780/T cells incubated for 4 hrs by flow cytometry; format: functional, cell-based; conditions: dose 0.5-2 µM
[13] = molecular target: T1, ATP-dependent translocase ABCB1; assay: Inhibition of P-gp-mediated drug efflux of Rh123 in human Paclitaxel-resistant A2780/T cells at 2 uM measured upto 120 mins by flow cytometry; format: cell-based; conditions: paclitaxel-resistant a2780/t cell, 2 h

COc1cc(-c2ccc(CNC(=O)c3cn(C)c4ccccc34)nc2)cc(OC)c1OC
IC50 (A2780/Taxol [1]): > 50000 nM
inhibition at 1 µM (A2780/Taxol [2]): 55%
inhibition at 10 µM (A2780/Taxol [3]): 88%
Ratio IC50 (A2780/Taxol [4]): 156
Ratio IC50 [5]: 11
Ratio IC50 [6]: 7
EC50 (A2780/Taxol [7]): 88 nM
Kd [8]: 798 nM
inhibition (INH) [9]: Dose-dependent-effect
inhibition (INH) [10]: Active
inhibition (INH) [11]: Not_active
Activity (A2780/Taxol [12]): Dose-dependent-effect; Activity Was Observed Superior To Vrp
inhibition (INH) [13]: Active
